Reference: patent US20190263799A1, “1H-IMIDAZO[4,5-B]PYRIDINYL AND 2-OXO-2,3-DIHYDRO-1H-IMIDAZO[4,5-B]PYRIDINYL HETEROCYCLIC BET BROMODOMAIN INHIBITORS” (ZENITH EPIGENETICS LTD., priority 2015, published 2019)
Where two headings read alike, the source gives them in different places.

What was measured:
[1] = test system: MV4-11 cells; test: Washout proliferation: durability of proliferation inhibition in MV4-11 cells; assay type: cell-based; conditions: Homo sapiens
Procedure: FIG. 1 depicts inhibition of proliferation. […] MV4-11 cells were treated for 16 hours after which compounds were removed, cells washed 3 times with media, replaced with media and proliferation was measured at 72 h post washout.
MV4-11 cells (CRL-9591) were plated at a density of 5×10^4 cells per well in 96 well flat bottom plates and treated with increasing concentrations of compounds or DMSO (0.1%) in IMDM media containing 10% FBS and penicillin/streptomycin. Triplicate wells were used for each concentration and a well containing only media was used as a control. Plates were incubated at 37° C., 5% CO2 for 16 h after which the compounds were removed, replaced with media, and proliferation was measured at 72 hours post washout by adding 100 μL of the Cell Titer Fluor 96 Cell Viability Assay (Promega). After the incubation for 45 min at 37° C. with 5% CO2 fluorescence is read on the Synergy plate reader set at 380-400 nm Ex/505 nm. Percentage of cell viability to DMSO-treated cells was calculated after correcting for background by subtracting the blank well's signal. IC50 values were calculated using the GraphPad Prism software from the dose-dependent inhibition of proliferation.

[2] = test system: MV4-11 cells; test: Inhibition of cell proliferation in cancer cell lines (MV4-11, CellTiter Aqueous One); assay type: cell-based; conditions: Homo sapiens, read-out: Proliferation activity
Procedure: MV4-11 cells (CRL-9591) were plated at a density of 5×10^4 cells per well in 96 well flat bottom plates and treated with increasing concentrations of test compound or DMSO (0.1%) in IMDM media containing 10% FBS and penicillin/streptomycin. Triplicate wells were used for each concentration and a well containing only media was used as a control. Plates were incubated at 37° C., 5% CO2 for 72 h before adding 20 μL of the CellTiter Aqueous One Solution (Promega) to each well and incubating at 37° C., 5% CO2 for an additional 3-4 h. The absorbance was read at 490 nm in a spectrophotometer and the percentage of cell titer relative to DMSO-treated cells was calculated after correcting for background by subtracting the blank well's signal. IC50 values were calculated using the GraphPad Prism software.

[3] = test system: BCL2; test: Durability of BCL2 expression inhibition after washout in MV4-11 cells; assay type: cell-based; conditions: Homo sapiens
Procedure: (§1) MV4-11 cells were treated for 3 hours after which compounds were removed, cells washed with media 3 times, replaced with media; harvest was performed 5 hours post washout and the expression of MYC and BCL2 was determined.
(§2) MV4-11 cells (CRL-9591) were plated at a density of 2.5×10^4 cells per well in 96 well U-bottom plates and treated with increasing concentrations of test compound or DMSO (0.1%) in IMDM media containing 10% FBS and penicillin/streptomycin, and incubated for […] 37° C. after which the compounds are removed, replaced with media and cells were harvested at 5 hours post washout. Triplicate wells were used for each concentration. Cells were pelleted by centrifugation and harvested using the mRNA Catcher PLUS kit according to manufacturer's instructions. The eluted mRNA isolated was then used in a one-step quantitative real-time PCR reaction, using components of the RNA UltraSense™ One-Step Kit (Life Technologies) together with Applied Biosystems TaqMan® primer-probes for cMYC and Cyclophilin. Real-time PCR plates were run on a ViiA™7 real time PCR machine (Applied Biosystems), data was analyzed, normalizing the Ct values for MYC and BCL2 to an internal control, prior to determining the fold expression of each sample, relative to the control.

[4] = test system: MYC; test: Durability of MYC expression inhibition after washout in MV4-11 cells; assay type: cell-based; conditions: Homo sapiens
Procedure: as §1, §2

[5] = test system: cMYC; test: Inhibition of cMYC expression in cancer cell lines (MV4-11, real-time PCR); assay type: cell-based; conditions: Homo sapiens, read-out: Myc activity
Procedure: MV4-11 cells (CRL-9591) were plated at a density of 2.5×10^4 cells per well in 96 well U-bottom plates and treated with increasing concentrations of test compound or DMSO (0.1%) in IMDM media containing 10% FBS and penicillin/streptomycin, and incubated for 3 h at 37° C. Triplicate wells were used for each concentration. Cells were pelleted by centrifugation and harvested using the mRNA Catcher PLUS kit according to manufacturer's instructions. The eluted mRNA isolated was then used in a one-step quantitative real-time PCR reaction, using components of the RNA UltraSense™ One-Step Kit (Life Technologies) together with Applied Biosystems TaqMan® primer-probes for cMYC and Cyclophilin. Real-time PCR plates were run on a ViiA™7 real time PCR machine (Applied Biosystems), data were analyzed, normalizing the Ct values for cMYC to an internal control, prior to determining the fold expression of each sample, relative to the control.

[6] = molecular target: T1, BRD4(1) (Homo sapiens, UniProt O60885); test: Inhibition of tetra-acetylated histone H4 binding to individual BET bromodomains (AlphaScreen); conditions: His-tagged BRD4(1) 20 nM, biotinylated tetra-acetylated histone H4 peptide, 30 min incubation; read-out: FRET activity BRD4(1)
T1 construct: N-terminally His-tagged bromodomains (BRD4(1) at 20 nM and BRD4(2) at 100 nM); made in house; host or cells: E. coli BL21(DE3)
Procedure: Proteins were cloned and overexpressed with a N-terminal 6×His tag, then purified by nickel affinity followed by size exclusion chromatography. Briefly, E. coli BL21(DE3) cells were transformed with a recombinant expression vector encoding N-terminally Nickel affinity tagged bromodomains from Brd2, Brd3, Brd4. Cell cultures were incubated at 37° C. with shaking to the appropriate density and induced overnight with IPTG. The supernatant of lysed cells was loaded onto Ni-IDA column for purification. Eluted protein was pooled, concentrated and further purified by size exclusion chromatography. Fractions representing monomeric protein were pooled, concentrated, aliquoted, and frozen at −80° C. for use in subsequent experiments.
Binding of tetra-acetylated histone H4 peptide (Millipore) and BET bromodomains was confirmed by Amplified Luminescent Proximity Homogenous Assay (AlphaScreen). N-terminally His-tagged bromodomains (BRD4(1) at 20 nM and BRD4(2) at 100 nM) and biotinylated tetra-acetylated histone H4 (10-25 nM) were incubated in the presence of nickel chelate acceptor beads and streptavidin donor beads (PerkinAlmer, 6760000K) added to a final concentration of 2 μg/mL under green light in a white 96 well microtiter plate (Greiner). For inhibition assays, serially diluted compounds were added to the reaction mixtures in a 0.1% final concentrations of DMSO. Final buffer concentrations were 50 mM HEPES, 100 mM NaCl and 0.1% BSA buffer, pH 7.4 and optimized to 30 min incubation time. Assay plates were read at 570 nm on a Synergy H4 Plate Reader (Biotek). IC50 values were determined from a dose response curve.

[7] = MV4-11 cells, 3 h incubation, cMYC mRNA

Row | Structure (SMILES) | IC50 ([1]; MV4-11 cells treated 16 h, washed, proliferation measured 72 h post washout, read-out: IC50 of inhibition of proliferation after 72 hours of compound removal) | IC50 ([2]; MV4-11 cells, 72 h incubation) | IC50 ([3]; MV4-11 cells treated 3 h, washed, harvested 5 h post washout, read-out: IC50 of BCL2 inhibition at 5 hours post washout) | IC50 ([4]; MV4-11 cells treated 3 h, washed, harvested 5 h post washout, read-out: IC50 of sustained MYC inhibition at 5 h post washout) | IC50 [5, 7] | IC50 ([1]; MV4-11, read-out: IC50 of inhibition of proliferation after 72 hours of compound removal) | IC50 ([2]; MV4-11, 72 h) | IC50 ([3]; MV4-11, read-out: IC50 of BCL2 inhibition at 5 hours post washout) | IC50 ([4]; MV4-11, read-out: IC50 of sustained MYC inhibition at 5 h post washout) | IC50 ([5]; MV4-11, 3 h) | IC50 [6]
1 | C=CC(=O)N(C)c1cnc2nc(N3CCCC3)n(Cc3ccccc3)c2c1 [Example 15, N-(1-Benzyl-2-(pyrrolidin-1-yl)-1H-imidazo[4,5-b]pyridin-6-yl)-N-methylacrylamide] | – | – | – | – | – | 5.98 µM | 300 to 3000 nM | 7.9 µM | 23 µM | 300 to 3000 nM | ≤ 300 nM
2 | CN(C)C(=O)N(C)c1cnc2nc(N3CCCC3)n(Cc3ccccc3)c2c1 [Example 35, 1-(1-Benzyl-2-(pyrrolidin-1-yl)-1H-imidazo[4,5-b]pyridin-6-yl)-1,3,3-trimethylurea] | – | – | – | – | – | – | 3000 to 30000 nM | – | – | 3000 to 30000 nM | 300 to 3000 nM
3 | C=CC(=O)N(C)c1cnc2nc(N3C4CCC3CC(O)C4)n(Cc3ccccc3)c2c1 (stereo not drawn) [Example 24, N-(1-Benzyl-2-(3-hydroxy-8-azabicyclo[3.2.1]octan-8-yl)-1H-imidazo[4,5-b]pyridin-6-yl)-N-methylacrylamide] | – | – | – | – | – | – | 3000 to 30000 nM | – | – | 300 to 3000 nM | ≤ 300 nM

The next lines start with results.

Row | IC50 ([1]; MV4-11 cells treated 16 h, washed, proliferation measured 72 h post washout, read-out: IC50 of inhibition of proliferation after 72 hours of compound removal) | IC50 ([2]; MV4-11 cells, 72 h incubation) | IC50 ([3]; MV4-11 cells treated 3 h, washed, harvested 5 h post washout, read-out: IC50 of BCL2 inhibition at 5 hours post washout) | IC50 ([4]; MV4-11 cells treated 3 h, washed, harvested 5 h post washout, read-out: IC50 of sustained MYC inhibition at 5 h post washout) | IC50 [5, 7] | Structure (SMILES) | IC50 ([1]; MV4-11, read-out: IC50 of inhibition of proliferation after 72 hours of compound removal) | IC50 ([2]; MV4-11, 72 h) | IC50 ([3]; MV4-11, read-out: IC50 of BCL2 inhibition at 5 hours post washout) | IC50 ([4]; MV4-11, read-out: IC50 of sustained MYC inhibition at 5 h post washout) | IC50 ([5]; MV4-11, 3 h) | IC50 [6]
4 | ~50 µM | 300 to 3000 nM | ~50 µM | 29 µM | 300 to 3000 nM | CC(=O)N(C)c1cnc2nc(N3CCCC3)n(Cc3ccccc3)c2c1 [Example 18, N-(1-Benzyl-2-(pyrrolidin-1-yl)-1H-imidazo[4,5-b]pyridin-6-yl)-N-methylacetamide] | – | – | – | – | – | ≤ 300 nM
5 | – | 3000 to 30000 nM | – | – | 3000 to 30000 nM | CN(C(=O)CO)c1cnc2nc(N3CCCC3)n(Cc3ccccc3)c2c1 [Example 32, N-(1-Benzyl-2-(pyrrolidin-1-yl)-1H-imidazo[4,5-b]pyridin-6-yl)-2-hydroxy-N-methylacetamide] | – | – | – | – | – | 300 to 3000 nM
6 | – | 300 to 3000 nM | – | – | < 300 nM | C=CC(=O)N(C)c1cnc2nc(N3CC[C@H](CO)C3)n(Cc3ccccc3)c2c1 [Example 25, (S)—N-(1-Benzyl-2-(3-(hydroxymethyl)pyrrolidin-1-yl)-1H-imidazo[4,5-b]pyridin-6-yl)-N-methylacrylamide] | – | – | – | – | – | ≤ 300 nM
